Experimental findings from patent US10793579B2, “Bicyclic-fused heteroaryl or aryl compounds” (Pfizer Inc., priority 2014, dated 2020) are described below.

The structures appear in SMILES notation. Where two headings read alike, the source gives them in different places.

For assay [1], the system named is R848-induced TNFα production by human peripheral blood mononuclear cells (PBMCs). The assay can be described thus: R848 Induced TNFα in Human PBMC Assay. The format is cell-based.
Text: This protocol is for R848-induced TNFα production by human peripheral blood mononuclear cells (PBMCs). […] The assay is used to assess cell-based potency of small molecule inhibitors of IRAK4 in the absence of serum.
The PBMCs in the interphase layer were collected and washed with PBS via centrifugation multiple times until the supernatant is clear. The purified PBMCs were re-suspended in RPMI (Roswell Park Memorial Institute) media (Sigma-Aldrich).
For the assay, a compound dilution plate containing a top concentration of 4 mM compound in DMSO was serially diluted 4-fold for 11 times. 250 nL of the compound dilution plate was spotted into a 384-well, flat bottom with IId, TC-treated, black with clear bottom, sterile, polystyrene plate (Corning Life Sciences).
10 μL of anti-TNFα antibody labeled with MSD SULFO-TAG at 50 μg/mL was added to each well and allowed to incubate overnight at 4° C. […] The plates were then imaged on an MSD Sector Imager 6000.
Assay [2] has as its target human IRAK4 FL (Full Length) (Homo sapiens (Human), UniProt Q9NWZ3). The assay is described as follows: IRAK4 Enzymatic DELFIA Assay, Protocol A. Particulars: 0.6 mM ATP. It counts as biochemical.
For assay [3], the system named is collagen-induced arthritis (hind paw volume). The assay is described as follows: In Vivo Rat Collagen-Induced Arthritis Model. Particulars: Lewis rat. As for the experimental part:
In Vivo Rat Collagen-Induced Arthritis Model.
Efficacy of IRAK4 compounds of the present invention was also evaluated in a rat in vivo model of rheumatoid arthritis (M. Hegen, J. C. Keith, Jr, M. Collins, C. L. Nickerson-Nutter, Ann. Rheum. Dis. 2008, 67, 1505-1515). An exemplary protocol for this in vivo model follows.
Female Lewis rats, approximately 7 weeks old, were immunized with an emulsion of type II collagen (CII) and incomplete Freund's adjuvant (IFA) on day 0 and received a boost of CII/IFA on day 7. Hind paw volume increase was taken by plethysmograph. Animals were randomly enrolled into treatment groups based on the development of disease. Beginning on day 11 post immunization, rats were enrolled into random treatment groups based on an increase in a single hind paw volume compared to day 7 post immunization baseline measurements.
Ten rats were enrolled per treatment group with the exception of the naive control group, which contained two rats. Day 0 was designated as the first treatment day, and paw measurements are taken daily by plethysmograph. The rats were weighed on a daily basis.
IRAK4 inhibitors are efficacious in the Lewis rat model of collagen-induced arthritis.

Setting [4] is: human PBMC, absence of serum, read-out: R848-induced TNFa PBMC IC50.
Setting [5] is: Homo sapiens, PBMC, read-out: R848-induced TNFa PBMC IC50 (nM).

human IRAK4 FL (Full Length), sequence (Q9NWZ3 whole entry): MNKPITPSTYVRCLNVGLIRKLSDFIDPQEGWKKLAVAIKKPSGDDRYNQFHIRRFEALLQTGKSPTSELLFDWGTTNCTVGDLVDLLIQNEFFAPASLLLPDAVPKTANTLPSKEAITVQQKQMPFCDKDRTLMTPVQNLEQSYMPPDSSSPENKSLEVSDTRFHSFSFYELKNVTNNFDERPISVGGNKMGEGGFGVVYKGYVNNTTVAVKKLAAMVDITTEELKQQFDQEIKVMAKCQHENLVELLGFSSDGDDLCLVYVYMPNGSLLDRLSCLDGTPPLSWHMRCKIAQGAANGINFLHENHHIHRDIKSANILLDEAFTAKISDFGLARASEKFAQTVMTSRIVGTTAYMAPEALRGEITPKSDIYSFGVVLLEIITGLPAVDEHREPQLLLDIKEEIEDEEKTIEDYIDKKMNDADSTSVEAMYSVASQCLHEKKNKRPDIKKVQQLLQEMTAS

With `COc1cc2c(OC[C@H]3NC(=O)[C@@H]4[C@@H](CF)[C@@H]43)nccc2cc1C(N)=O` [Example 304, 1-{[(1R,2S,5S)-6-(fluoromethyl)-4-oxo-3-azabicyclo[3.1.0]hex-2-yl]methoxy}-7-methoxyisoquinoline-6-carboxamide], the IC50 in assay [1] (setting [4]) was 35 nM.

`COc1cc2c(OC[C@@H]3C[C@](F)(CC(F)(F)F)C(=O)N3)cccc2cc1C(N)=O` [Example 241, 5-{[(2S,4S)-4-fluoro-5-oxo-4-(2,2,2-trifluoroethyl)pyrrolidin-2-yl]methoxy}-3-methoxynaphthalene-2-carboxamide] gave an IC50 in assay [2] of 161 nM.

`C[C@@H]1[C@H](F)C(=O)N[C@@H]1COc1nccc2cc(C(N)=O)c(OC3CC3)cc12` [Example 281, 7-(cyclopropyloxy)-1-{[(2S,3S,4S)-4-fluoro-3-methyl-5-oxopyrrolidin-2-yl]methoxy}isoquinoline-6-carboxamide]: the concentration for half-maximal inhibition (IC50) in assay [1] (setting [5]) stood at 127 nM.

Take `COc1cc2c(OC[C@@H]3C[C@@](F)(CC(F)(F)F)C(=O)N3)cccc2cc1C(N)=O` [Example 240, 5-{[(2S,4R)-4-fluoro-5-oxo-4-(2,2,2-trifluoroethyl)pyrrolidin-2-yl]methoxy}-3-methoxynaphthalene-2-carboxamide]: in assay [2], half-maximal inhibition (IC50) required 2.3 nM.

Take `Cc1ccc(-n2nc(C(C)(C)C)cc2NC(=O)Nc2ccc(OCCN3CCOCC3)c3ccccc23)cc1` [BIRB796, reference compound]: the “days with significant reduction of hind paw swelling in CIA rats (t-test, p<0.05 vs. vehicle)” value in assay [3] (30 mg/kg PO, QD, positive control (p38 inhibitor)) is recorded as “Day 1-Day 8”.

In the case of `CC(C)Oc1cc2c(OC[C@@H]3CCC(=O)N3)nccc2cc1C(N)=O` [Example 26, 1-{[(2S)-5-oxopyrrolidin-2-yl]methoxy}-7-(propan-2-yloxy)isoquinoline-6-carboxamide], the “days with significant reduction of hind paw swelling in CIA rats (t-test, p<0.05 vs. vehicle)” value is given as “Day 2-Day 8” in assay [3] (30 mg/kg PO, BID, therapeutic treatment for 8 days) and “Day 1-Day 8 (end)” in assay [3] (100 mg/kg PO, BID, therapeutic treatment for 8 days). Moreover, the “hind paw swelling in CIA rats” value is “transiently significant reduction in hind paw swelling only on Day 5 and Day 6 post treatment” in assay [3] (10 mg/kg PO, BID); “reduced the hind paw swelling in CIA rats significantly” in assay [3] (therapeutic treatment BID daily for 8 days, t-test p<0.05 vs. vehicle).

With `COc1cc2c(OC[C@H]3NC(=O)[C@H]4C3[C@H]4CF)nccc2cc1C(N)=O` (stereo in doubt) [Example 303, 1-(((1S,2S,5S,6R)-6-(fluoromethyl)-4-oxo-3-azabicyclo[3.1.0]hexan-2-yl)methoxy)-7-methoxyisoquinoline-6-carboxamide], in assay [1] (setting [4]), the IC50 worked out at 6050 nM.

For the compound `COc1cc2c(OC[C@H]3C[C@@H](F)C(=O)N3)nccc2cc1C(N)=O` [Example 275, 1-{[(2R,4R)-4-fluoro-5-oxopyrrolidin-2-yl]methoxy}-7-methoxyisoquinoline-6-carboxamide], the concentration for half-maximal inhibition (IC50) in assay [2] came to 119 nM; in assay [1] (setting [5]), 5140 nM.

As a reminder, the IC50 is the concentration needed to halve the response being measured.
